# Values of other authors as cited in patent US20220409351A1, “ORAL APPLIANCE FOR DELIVERY OF AN ANTIMICROBIAL COMPOSITION” (Emanate Biomedical, Inc., priority 2019, published 2022).
# Key:
# oral pathogenic bacteria [1] = details: against oral pathogenic bacteria
# oral pathogenic bacteria [2] = details: at 10 minutes
smiles,measurement,setting,value
"[H]/N=C(\N/C(=N/[H])NCCCCCCNC(=N)NC(=N)Nc1ccc(Cl)cc1)Nc1ccc(Cl)cc1 [Chlorhexidine, chlorhexidine]",MIC,oral pathogenic bacteria [1],0.0125 % w/v
same,MBC,oral pathogenic bacteria [2],0.5 % w/v
